Like-named read-outs stand apart in the source and are kept apart here.
Columns and labels:
[1] = target: T1, human thyroid hormone receptors TRα1 (Homo sapiens, UniProt P10827); assay: Receptor binding to TRα1 (gel filtration and scintillation proximity assay, labeled T3); conditions: read-out: Ki TRα
T1 construct: made in house; host or cells: Sf9 insect cells (baculovirus)
T1 sequence (P10827 1-410 isoform P10827-2): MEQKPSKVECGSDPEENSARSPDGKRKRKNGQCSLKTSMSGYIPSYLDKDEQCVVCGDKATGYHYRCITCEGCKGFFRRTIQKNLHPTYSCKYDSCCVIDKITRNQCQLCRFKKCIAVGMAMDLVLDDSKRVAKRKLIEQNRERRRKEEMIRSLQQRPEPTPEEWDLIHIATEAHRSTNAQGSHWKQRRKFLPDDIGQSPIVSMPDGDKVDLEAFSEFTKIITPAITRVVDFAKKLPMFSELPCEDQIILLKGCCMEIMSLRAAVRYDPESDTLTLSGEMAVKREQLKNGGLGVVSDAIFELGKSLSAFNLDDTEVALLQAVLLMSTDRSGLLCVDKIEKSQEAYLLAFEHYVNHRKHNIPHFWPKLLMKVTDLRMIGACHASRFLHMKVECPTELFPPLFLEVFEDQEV
T1 sequence (P19793 1-462 partner): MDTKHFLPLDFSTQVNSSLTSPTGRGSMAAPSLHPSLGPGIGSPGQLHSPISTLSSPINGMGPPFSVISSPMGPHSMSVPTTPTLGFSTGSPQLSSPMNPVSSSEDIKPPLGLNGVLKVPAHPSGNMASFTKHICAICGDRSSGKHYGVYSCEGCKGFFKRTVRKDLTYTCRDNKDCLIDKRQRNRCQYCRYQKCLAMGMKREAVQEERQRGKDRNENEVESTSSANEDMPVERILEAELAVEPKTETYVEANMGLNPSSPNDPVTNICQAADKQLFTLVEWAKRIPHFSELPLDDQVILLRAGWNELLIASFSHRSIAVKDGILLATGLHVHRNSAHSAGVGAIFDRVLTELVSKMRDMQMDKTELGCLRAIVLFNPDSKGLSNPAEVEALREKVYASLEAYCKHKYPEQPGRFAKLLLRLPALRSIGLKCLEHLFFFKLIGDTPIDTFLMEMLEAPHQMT
Description: (§1) Methods: Baculoviruses expressing TRα1, TRβ1 and RXRα were generated using cDNA and other reagents from Invitrogen (Carlsbad, Calif.). To produce TR/RXR heterodimer proteins, the sf9 insect cells were first grown to a density of 1-5×10^5 cells/mL. […] and RXRα baculovirus stocks were added to the cell culture with a ratio of 1 to 1 (multiplicity of infection=10). The cells were harvested three days after the infection.
(§2) Binding of compounds to either the TRα1 or TRβ1 were also performed by means of scintillation proximity assays (SPA). The SPA assay, a common method used for the quantitation of receptor-ligand equilibria, makes use of special beads coated with a scintillant and a capture molecule, copper, which binds to the histidine-tagged α or β receptor.

[2] = target: T2, human thyroid hormone receptors TRβ1 (Homo sapiens, UniProt P10828); assay: Receptor binding to TRβ1 (gel filtration and scintillation proximity assay, labeled T3); conditions: read-out: Ki TRβ
T2 construct: made in house; host or cells: Sf9 insect cells (baculovirus)
T2 sequence (P10828 1-461): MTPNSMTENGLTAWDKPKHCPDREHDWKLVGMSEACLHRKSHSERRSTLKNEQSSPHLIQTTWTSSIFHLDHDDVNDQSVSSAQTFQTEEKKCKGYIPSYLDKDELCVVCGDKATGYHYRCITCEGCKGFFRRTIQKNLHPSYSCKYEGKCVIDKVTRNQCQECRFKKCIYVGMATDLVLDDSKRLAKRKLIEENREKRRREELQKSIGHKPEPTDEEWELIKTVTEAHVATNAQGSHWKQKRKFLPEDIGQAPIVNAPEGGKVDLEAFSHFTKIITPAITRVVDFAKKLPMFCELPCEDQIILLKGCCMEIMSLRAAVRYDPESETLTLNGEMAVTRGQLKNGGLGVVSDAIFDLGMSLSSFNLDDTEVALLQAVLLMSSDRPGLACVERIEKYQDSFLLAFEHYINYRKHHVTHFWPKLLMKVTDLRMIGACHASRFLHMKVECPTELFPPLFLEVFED
T2 sequence (P19793 1-462 partner): T1 sequence (P19793 1-462 partner)
Description: as §1, §2

Compound	Ki ([1]; SPA data)	Ki ([2]; SPA data)	Ki [2]	Ki [1]
O=P(O)(O)CCc1cc(I)c(Oc2ccc(O)c(I)c2)c(I)c1 [Compound 3, 2-[3,5-diiodo-4-(4′-hydroxy-3′-iodophenoxy)phenyl]ethylphosphonic acid]	0.046 µM	0.00542 µM		
Cc1cc(C(=O)NCP(=O)(O)O)cc(C)c1Oc1ccc(O)c(C(C)C)c1 [Compound 23, N-[3,5-dimethyl-4-(4′-hydroxy-3′-iso-propylphenoxy)benzamido]methyl phosphonic acid]	> 2 µM	> 2 µM		
Cc1cc(OCP(=O)(O)O)cc(C)c1Cc1ccc(O)c(C(=O)c2ccc(F)cc2)c1 [Compound 39, [3,5-dimethyl-4-[3′-(4-fluoro-benzoyl)-4′-hydroxy-benzyl]phenoxy]methylphosphonic acid]	> 2 µM	0.058 µM		
CC(C)c1cc(Oc2c(Cl)cc(C(=O)CP(=O)(O)O)cc2Cl)ccc1O [Compound 21, 2-[3,5-dichloro-4-(4′-hydroxy-3′-iso-propylphenoxy)phenyl]-2-oxoethylphosphonic acid]	> 1.4 µM	> 0.18 µM		
Cc1cc(CC(=O)CP(=O)(O)O)cc(C)c1Oc1ccc(O)c(C(C)C)c1 [Compound 32, 3-[3,5-dimethyl-4-(4′-hydroxy-3′-iso-propylphenoxy)]phenyl-2-oxopropylphosphonic acid]	0.284 µM	0.096 µM		
Cc1cc(C(=O)CP(=O)(O)O)cc(C)c1Cc1ccc(O)c(Cc2ccccc2)c1 [Compound 41, [3,5-dimethyl-4-[3′-benzyl-4′-hydroxy-benzyl]benzoyl]methylphosphonic acid]	> 2 µM	0.181 µM		
Cc1cc(OCP(=O)(O)O)cc(C)c1Cc1ccc(O)c(S(=O)(=O)C(C)C)c1 [Compound 44, [3,5-dimethyl-4-[4′-hydroxy-3′-(iso-propylsulfonyl)benzyl]phenoxy]methylphosphonic acid]	0.832 µM	0.044 µM		
Cc1cc(OCP(=O)(O)O)cc(C)c1Cc1ccc(O)c(I)c1 [Compound 34, [3,5-dimethyl-4-(4′-hydroxy-3′-iodobenzyl)phenoxy]methylphosphonic acid]	0.118 µM	0.0065 µM		
Cc1cc(OCP(=O)(O)O)cc(C)c1Nc1ccc(O)c(C(C)C)c1 [Compound 20, [3,5-dimethyl-4-N-(4′-hydroxy-3-iso-propylphenylamino)phenoxy]methylphosphonic acid]	> 2 µM	> 2 µM		
CC(C)c1cc(Oc2c(I)cc(CCP(=O)(O)O)cc2I)ccc1O [Compound 4, 2-[3,5-diiodo-4-(4′-hydroxy-3′-iso-propylphenoxy)phenyl]ethylphosphonic acid]	0.0141 µM	0.00099 µM		
Cc1cc(OC[P@@]2(=O)OCC[C@@H](c3cc(Cl)cc(Cl)c3)O2)cc(C)c1Cc1ccc(O)c(C(C)C)c1 [Compound 13-7-cis]	49.6 µM	45.1 µM		
COc1cc(CCP(=O)(O)O)cc(OC)c1Cc1ccc(O)c(C(C)C)c1 [Compound 24, 2-[3,5-dimethoxy-4-(4′-hydroxy-3′-isopropylbenzyl)phenyl]ethylphosphonic acid]	> 2 µM	> 2 µM		
CC(C)c1cc(Oc2c(I)cc(CP(=O)(O)O)cc2I)ccc1O [Compound 5, 3,5-diiodo-4-(4′-hydroxy-3′-iso-propylphenoxy)benzylphosphonic acid]			0.00084 µM	0.00184 µM
Cc1cc(OCCP(=O)(O)O)cc(C)c1Cc1ccc(O)c(C(C)C)c1 [Compound 26, 2-[3,5-dimethyl-4-(3′-iso-propyl-4′-hydroxybenzyl)phenoxy]ethylphosphonic acid]			0.087 µM	0.594 µM
Cc1cc(OCP(=O)(O)O)cc(C)c1Sc1ccc(O)c(C(C)C)c1 [Compound 43, [3,5-dimethyl-4-S-[(4′-hydroxy-3′-iso-propylphenyl)sulfanyl]phenoxy]methylphosphonate]	0.363 µM	0.108 µM		
Cc1cc(OCP(=O)(O)O)cc(C)c1Cc1ccc(O)c(C(=O)O)c1 [Compound 35, [3,5-dimethyl-4-(3′-carboxyl-4′-hydroxy-benzyl)phenoxy]methylphosphonic acid]	> 2 µM	> 2 µM		
NC(Cc1cc(I)c(Oc2ccc(O)c(I)c2)c(I)c1)P(=O)(O)O (stereo not shown) [Compound 2, 1-amino-2-[3,5-diiodo-4-(4′-hydroxy-3′-iodophenoxy)phenyl]ethylphosphonic acid]			0.271 µM	1.42 µM
Cc1cc(SCP(=O)(O)O)cc(C)c1Oc1ccc(O)c(C(C)C)c1 [Compound 54, [3,5-Dimethyl-4-(4′-hydroxy-3′-iso-propylphenoxy)benzenesulfanyl]methylphosphonic acid]			0.042 µM	0.143 µM
Cc1cc(OC[P@]2(=O)OCC[C@@H](c3cccc(F)c3)O2)cc(C)c1Cc1ccc(O)c(C(C)C)c1 [Compound 13-3-trans]	2.01 µM	2.46 µM		
Cc1cc(OCP(=O)(O)O)cc(C)c1Cc1ccc(O)c(C(=O)NC(C)C)c1 [Compound 36, [3,5-dimethyl-4-(4′-hydroxy-3′-iso-propylcarbamoylbenzyl)-phenoxy]methylphosphonic acid]	> 2 µM	0.106 µM		

Now from value to compound, other results behind:

Ki ([1]; SPA data)	Ki ([2]; SPA data)	Compound	Ki [2]	Ki [1]
> 2 µM	> 2 µM	COc1ccc(Cc2c(C)cc(OCP(=O)(O)O)cc2C)cc1C(C)C [Compound 7-4, [3,5-dimethyl-4-(3′-iso-propyl-4′-methoxybenzyl)phenoxy]methylphosphonic acid]		
> 2 µM	> 2 µM	CCOC(=O)[C@@H](NP(=O)(COc1cc(C)c(Cc2ccc(O)c(C(C)C)c2)c(C)c1)N[C@H](C(=O)OCC)C(C)C)C(C)C [Compound 15-3, di-N-(1-ethoxycarbonyl-2-methyl-propylamino)[3,5-dimethyl-4-(3′-iso-propyl-4′-hydroxybenzyl)phenoxy]methylphosphonamide]		
> 2 µM	0.28 µM	CC(C)c1cc(Cc2c(Cl)cc(C(=O)CP(=O)(O)O)cc2Cl)ccc1F [Compound 41-3, 2-[3,5-dichloro-4-(4-fluoro-iso-propyl-benzyl)-phenyl]-2-oxo-ethylphosphonic acid]		
0.898 µM	0.09 µM	Cc1cc(Cc2c(C)cc(OCP(=O)(O)O)cc2C)ccc1O [Compound 7-7, [3,5-dimethyl-4-[4′-hydroxy-3′-methylbenzyl]phenoxy]methylphosphonic acid]		
> 2 µM		COc1cc(OCP(=O)(O)O)cc(OC)c1Cc1ccc(O)c(C(C)C)c1 [Compound 7-2, [3,5-dimethoxy-4-(4′-hydroxy-3′-iso-propylbenzyl)phenoxy]methylphosphonic acid]	0.146 µM	
> 2 µM	0.092 µM	CCc1cc(Cc2c(C)cc(CCP(=O)(O)O)cc2C)ccc1O [Compound 24-4, 2-[3,5-dimethyl-4-(3′-Ethyl-4′-hydroxy-benzyl)phenyl]ethylphosphonic acid]		
0.067 µM	0.0095 µM	CC(C)c1cc(Cc2c(Cl)cc(OCP(=O)(O)O)cc2Cl)ccc1O [Compound 7-5, [3,5-dichloro-4-(4′-hydroxy-3′-iso-propylbenzyl)phenoxy]methylphosphonic acid]		
	0.128 µM	Cc1cc(CP(=O)(O)O)cc(C)c1Oc1ccc(O)c(C(C)C)c1 [Compound 19-3, [3,5-dimethyl-4-(4′-hydroxy-3′-iso-propylphenoxy)]benzylphosphonic acid]		1.76 µM
> 2 µM	0.061 µM	CC(=O)Nc1ccc(Cc2c(C)cc(OCP(=O)(O)O)cc2C)cc1C(C)C [Compound 7-12, [4-(4′-acetylamino-3′-iso-propylbenzyl)-3,5-dimethylphenoxy]methylphosphonic acid]		
